Measurements: PMC6407917, “Identification of GSK3186899/DDD853651 as a Preclinical Development Candidate for the Treatment of Visceral Leishmaniasis” (Journal of Medicinal Chemistry, 2018)

How the values were obtained:
Experiment in all cases: biochemical
Set-up in all cases: species or system HEK293/K-562/placenta mixed human extract; Kinobeads chemoproteomic competition binding, quantified by TMT LC-MS/MS, dose response up to 20 uM
LATS2 = LATS2 (Homo sapiens, UniProt Q9NRM7)
CAMK4 = CAMK4 (Homo sapiens, UniProt Q16566)
ACVR1B = ACVR1B (Homo sapiens, UniProt P36896)
MAP3K7 = MAP3K7 (Homo sapiens, UniProt O43318)
TESK1 = TESK1 (Homo sapiens, UniProt Q15569)
CDC42BPG = CDC42BPG (Homo sapiens, UniProt Q6DT37)
CDK10 = CDK10 (Homo sapiens, UniProt Q15131)
HCK = HCK (Homo sapiens, UniProt P08631)
MKNK1 = MKNK1 (Homo sapiens, UniProt Q9BUB5)
PRKAA1 = PRKAA1 (Homo sapiens, UniProt Q13131)
MAP2K2 = MAP2K2 (Homo sapiens, UniProt P36507)
MARK4 = MARK4 (Homo sapiens, UniProt Q96L34)
HIPK2 = HIPK2 (Homo sapiens, UniProt Q9H2X6)
PLK1 = PLK1 (Homo sapiens, UniProt P53350)
CSNK2A1 = CSNK2A1 (Homo sapiens, UniProt P68400)
PLK4 = PLK4 (Homo sapiens, UniProt O00444)
CSNK2B = CSNK2B (Homo sapiens, UniProt P67870)
NTRK1 = NTRK1 (Homo sapiens, UniProt P04629)
ULK1 = ULK1 (Homo sapiens, UniProt O75385)
NRK = NRK (Homo sapiens, UniProt Q7Z2Y5)
EPHA1 = EPHA1 (Homo sapiens, UniProt P21709)

MAP2K2, sequence (P36507 whole entry): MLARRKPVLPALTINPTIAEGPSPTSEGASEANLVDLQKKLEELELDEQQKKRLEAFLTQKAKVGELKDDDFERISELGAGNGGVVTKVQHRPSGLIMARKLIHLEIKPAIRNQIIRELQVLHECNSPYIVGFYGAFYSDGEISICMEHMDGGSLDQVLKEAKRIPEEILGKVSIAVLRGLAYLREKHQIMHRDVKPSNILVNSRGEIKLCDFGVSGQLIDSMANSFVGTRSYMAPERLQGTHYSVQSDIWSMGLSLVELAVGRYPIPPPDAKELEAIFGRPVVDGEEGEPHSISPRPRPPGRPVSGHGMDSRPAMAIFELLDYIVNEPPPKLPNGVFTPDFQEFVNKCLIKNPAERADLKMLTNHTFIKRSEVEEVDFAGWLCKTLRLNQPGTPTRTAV
HIPK2, sequence (Q9H2X6 whole entry): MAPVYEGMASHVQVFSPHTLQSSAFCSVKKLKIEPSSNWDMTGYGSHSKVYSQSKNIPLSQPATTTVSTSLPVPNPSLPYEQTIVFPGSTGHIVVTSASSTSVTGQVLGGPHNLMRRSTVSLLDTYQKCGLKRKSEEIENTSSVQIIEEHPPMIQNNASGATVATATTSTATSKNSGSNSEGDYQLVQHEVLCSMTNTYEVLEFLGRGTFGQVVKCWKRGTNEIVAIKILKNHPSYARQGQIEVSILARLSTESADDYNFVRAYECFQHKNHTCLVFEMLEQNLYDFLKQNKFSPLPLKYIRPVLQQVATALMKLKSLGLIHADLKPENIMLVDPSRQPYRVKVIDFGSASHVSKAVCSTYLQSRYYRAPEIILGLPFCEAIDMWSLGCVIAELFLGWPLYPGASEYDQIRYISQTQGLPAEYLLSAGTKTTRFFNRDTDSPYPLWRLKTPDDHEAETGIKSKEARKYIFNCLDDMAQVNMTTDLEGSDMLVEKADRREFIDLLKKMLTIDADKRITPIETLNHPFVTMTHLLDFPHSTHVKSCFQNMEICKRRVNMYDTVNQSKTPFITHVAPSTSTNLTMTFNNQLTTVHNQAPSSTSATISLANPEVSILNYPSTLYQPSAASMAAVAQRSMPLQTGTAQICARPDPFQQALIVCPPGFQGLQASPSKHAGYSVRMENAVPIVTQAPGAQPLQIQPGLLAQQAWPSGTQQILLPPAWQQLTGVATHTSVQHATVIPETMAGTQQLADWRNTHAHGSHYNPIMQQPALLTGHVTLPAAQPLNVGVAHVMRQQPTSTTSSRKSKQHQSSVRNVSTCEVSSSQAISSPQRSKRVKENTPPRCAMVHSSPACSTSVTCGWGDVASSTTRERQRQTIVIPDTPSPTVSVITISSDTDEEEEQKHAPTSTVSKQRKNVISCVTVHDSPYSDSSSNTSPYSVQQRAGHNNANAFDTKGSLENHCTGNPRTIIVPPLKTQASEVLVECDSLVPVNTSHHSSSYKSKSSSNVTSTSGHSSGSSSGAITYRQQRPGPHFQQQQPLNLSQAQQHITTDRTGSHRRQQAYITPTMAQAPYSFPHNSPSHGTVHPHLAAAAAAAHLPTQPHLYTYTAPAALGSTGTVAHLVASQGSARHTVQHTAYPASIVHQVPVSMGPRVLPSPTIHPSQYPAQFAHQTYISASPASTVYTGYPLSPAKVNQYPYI
PLK4, sequence (O00444 whole entry): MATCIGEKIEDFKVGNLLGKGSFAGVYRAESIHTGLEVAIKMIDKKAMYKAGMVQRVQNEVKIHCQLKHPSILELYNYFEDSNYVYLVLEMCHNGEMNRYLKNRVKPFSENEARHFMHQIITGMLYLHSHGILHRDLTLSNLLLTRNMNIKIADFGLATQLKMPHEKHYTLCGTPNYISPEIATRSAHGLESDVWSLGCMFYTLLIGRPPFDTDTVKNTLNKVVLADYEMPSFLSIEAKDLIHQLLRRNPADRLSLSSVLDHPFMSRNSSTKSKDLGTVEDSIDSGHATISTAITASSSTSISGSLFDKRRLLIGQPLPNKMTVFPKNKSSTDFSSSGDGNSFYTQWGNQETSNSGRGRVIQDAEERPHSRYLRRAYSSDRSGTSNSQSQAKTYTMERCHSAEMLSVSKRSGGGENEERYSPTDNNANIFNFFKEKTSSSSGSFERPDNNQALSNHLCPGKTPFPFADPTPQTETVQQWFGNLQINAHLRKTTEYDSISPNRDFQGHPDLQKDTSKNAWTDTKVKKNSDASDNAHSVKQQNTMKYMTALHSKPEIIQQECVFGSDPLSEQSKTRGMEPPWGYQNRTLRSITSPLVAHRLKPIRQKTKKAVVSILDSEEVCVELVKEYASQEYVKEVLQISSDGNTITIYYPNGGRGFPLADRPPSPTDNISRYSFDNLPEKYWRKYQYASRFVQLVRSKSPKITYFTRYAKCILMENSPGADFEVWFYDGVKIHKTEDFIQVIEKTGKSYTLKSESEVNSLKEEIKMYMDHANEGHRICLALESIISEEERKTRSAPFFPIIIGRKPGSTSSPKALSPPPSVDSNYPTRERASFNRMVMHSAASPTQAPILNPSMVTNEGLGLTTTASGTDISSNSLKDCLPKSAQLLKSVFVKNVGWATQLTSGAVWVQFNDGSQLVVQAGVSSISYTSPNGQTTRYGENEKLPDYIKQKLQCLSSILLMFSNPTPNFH
PLK1, sequence (P53350 whole entry): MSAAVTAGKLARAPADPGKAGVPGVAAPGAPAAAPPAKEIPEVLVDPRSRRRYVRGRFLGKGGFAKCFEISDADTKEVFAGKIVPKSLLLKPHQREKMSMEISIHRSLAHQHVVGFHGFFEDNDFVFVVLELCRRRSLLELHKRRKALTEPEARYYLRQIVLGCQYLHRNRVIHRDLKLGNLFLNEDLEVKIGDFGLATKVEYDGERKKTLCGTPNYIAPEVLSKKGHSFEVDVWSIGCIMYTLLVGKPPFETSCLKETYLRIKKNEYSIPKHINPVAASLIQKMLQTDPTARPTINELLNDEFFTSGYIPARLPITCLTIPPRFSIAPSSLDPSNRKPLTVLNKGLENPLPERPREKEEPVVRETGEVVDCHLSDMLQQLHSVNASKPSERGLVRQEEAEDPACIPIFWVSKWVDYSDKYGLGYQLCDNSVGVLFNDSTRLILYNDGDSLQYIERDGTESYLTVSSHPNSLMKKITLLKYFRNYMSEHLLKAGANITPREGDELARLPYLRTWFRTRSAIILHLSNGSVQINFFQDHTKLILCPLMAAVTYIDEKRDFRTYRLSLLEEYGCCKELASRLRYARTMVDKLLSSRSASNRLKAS
MAP3K7, sequence (O43318 whole entry): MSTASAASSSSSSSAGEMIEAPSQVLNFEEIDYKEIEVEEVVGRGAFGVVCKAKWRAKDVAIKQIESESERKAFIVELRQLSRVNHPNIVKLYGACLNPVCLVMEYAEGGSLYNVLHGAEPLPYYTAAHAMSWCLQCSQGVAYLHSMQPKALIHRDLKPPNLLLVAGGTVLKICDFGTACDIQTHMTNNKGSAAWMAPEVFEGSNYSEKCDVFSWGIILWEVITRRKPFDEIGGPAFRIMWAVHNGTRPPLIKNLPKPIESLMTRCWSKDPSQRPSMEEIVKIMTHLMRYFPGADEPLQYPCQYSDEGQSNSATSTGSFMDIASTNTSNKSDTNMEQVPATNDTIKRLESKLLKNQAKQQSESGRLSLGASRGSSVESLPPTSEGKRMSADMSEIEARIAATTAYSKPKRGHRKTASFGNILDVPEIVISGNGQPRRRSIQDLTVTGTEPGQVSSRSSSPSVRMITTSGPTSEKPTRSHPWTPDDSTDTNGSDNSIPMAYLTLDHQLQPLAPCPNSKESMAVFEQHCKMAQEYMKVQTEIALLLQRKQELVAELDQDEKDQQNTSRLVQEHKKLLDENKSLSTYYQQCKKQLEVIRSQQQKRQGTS
CSNK2B, sequence (P67870 whole entry): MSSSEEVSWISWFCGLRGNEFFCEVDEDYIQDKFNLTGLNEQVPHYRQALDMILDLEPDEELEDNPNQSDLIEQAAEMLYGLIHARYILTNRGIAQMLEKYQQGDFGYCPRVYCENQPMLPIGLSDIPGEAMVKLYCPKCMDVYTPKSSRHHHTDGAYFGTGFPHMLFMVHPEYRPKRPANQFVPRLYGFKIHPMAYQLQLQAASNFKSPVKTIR
PRKAA1, sequence (Q13131 whole entry): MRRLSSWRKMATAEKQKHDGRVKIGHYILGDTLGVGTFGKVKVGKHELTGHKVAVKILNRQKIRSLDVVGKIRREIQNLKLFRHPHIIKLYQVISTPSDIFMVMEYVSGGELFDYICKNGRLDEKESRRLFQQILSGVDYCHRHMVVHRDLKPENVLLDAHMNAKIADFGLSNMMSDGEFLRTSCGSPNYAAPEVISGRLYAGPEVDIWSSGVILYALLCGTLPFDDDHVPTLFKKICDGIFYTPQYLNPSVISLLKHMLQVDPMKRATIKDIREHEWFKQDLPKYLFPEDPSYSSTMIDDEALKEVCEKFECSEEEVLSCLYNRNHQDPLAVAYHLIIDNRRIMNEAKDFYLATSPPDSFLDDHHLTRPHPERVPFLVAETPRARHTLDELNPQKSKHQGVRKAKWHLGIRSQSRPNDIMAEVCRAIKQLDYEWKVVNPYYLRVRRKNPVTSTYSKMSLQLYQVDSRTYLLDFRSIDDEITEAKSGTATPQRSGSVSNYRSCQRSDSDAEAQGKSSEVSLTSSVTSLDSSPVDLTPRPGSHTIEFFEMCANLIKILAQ
MKNK1, sequence (Q9BUB5 whole entry): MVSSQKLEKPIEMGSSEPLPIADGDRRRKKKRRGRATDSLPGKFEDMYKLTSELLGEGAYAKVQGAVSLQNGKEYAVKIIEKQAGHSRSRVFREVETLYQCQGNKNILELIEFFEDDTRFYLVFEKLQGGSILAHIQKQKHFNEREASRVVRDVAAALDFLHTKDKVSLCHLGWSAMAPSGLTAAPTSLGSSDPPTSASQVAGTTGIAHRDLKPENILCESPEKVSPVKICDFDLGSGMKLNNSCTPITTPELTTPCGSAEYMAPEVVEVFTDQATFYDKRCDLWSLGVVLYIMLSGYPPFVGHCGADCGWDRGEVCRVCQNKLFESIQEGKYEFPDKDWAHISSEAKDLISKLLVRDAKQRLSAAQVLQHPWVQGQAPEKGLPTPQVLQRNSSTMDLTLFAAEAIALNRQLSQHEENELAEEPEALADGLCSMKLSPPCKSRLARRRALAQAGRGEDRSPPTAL

IC50 (LATS2): ≥ 20 µM | IC50 (CAMK4): ≥ 20 µM | IC50 (ACVR1B): ≥ 20 µM | IC50 (MAP3K7): ≥ 20 µM | IC50 (TESK1): ≥ 20 µM | IC50 (CDC42BPG): ≥ 20 µM | IC50 (CDK10): 2.6 µM | IC50 (HCK): ≥ 20 µM | IC50 (MKNK1): ≥ 20 µM | IC50 (PRKAA1): ≥ 20 µM | IC50 (MAP2K2): ≥ 20 µM | IC50 (MARK4): ≥ 20 µM | IC50 (HIPK2): ≥ 20 µM | IC50 (PLK1): ≥ 20 µM | IC50 (CSNK2A1): ≥ 20 µM | IC50 (PLK4): ≥ 20 µM | IC50 (CSNK2B): ≥ 20 µM | IC50 (NTRK1): ≥ 20 µM | IC50 (ULK1): ≥ 20 µM | IC50 (NRK): ≥ 20 µM | IC50 (EPHA1): ≥ 20 µM
Compound: COc1ccccc1-c1n[nH]c2nc(N[C@H]3CC[C@H](NS(=O)(=O)CCC(F)(F)F)CC3)nc(OC)c12 [compound 31, 3,3,3-Trifluoro-N-(trans-4-((4-methoxy-3-(2-methoxyphenyl)-1H-pyrazolo[3,4-d]pyrimidin-6-yl)amino)cyclohexyl)propane-1-sulfonamide]
